Results as given in US9511010B2, “Compounds useful in the treatment and/or care of the skin, hair and/or mucous membranes and their cosmetic or pharmaceutical compositions” (Lubrizol Advanced Materials, Inc., priority 2012, dated 2016).

Assays:
[1] = tested on: FOXO response elements; experiment: Stimulation of the expression of proteins regulated by FOXO: luciferase reporter under FOXO response elements; format: cell-based, human; details: 0.5 mg/mL, 24 hours; carrier (0.05% DMSO) = 100
Experimental: The activation capacity of the FOXO response elements was evaluated in a human epithelial cell line stably transfected with the luciferase gene under the control of a regulatory sequence which contains different FOXO response elements which are in the promoters of the FOXO target genes. The activation capacity of the FOXO response elements indicates the expression of proteins regulated by FOXO. 30,000 cells per well were seeded in a total volume of 100 μL of RPMI 1640 culture medium. After 24 hours the cells with RPMI 1640 culture medium were washed and were incubated with the compounds of the invention at 0.5 mg/mL for 24 hours in a total volume of 100 μL per well. The carrier in which the compounds of the invention were dissolved was used (0.05% DMSO) as a negative control.
The measurement of the activity of the promoter was carried out using the Steady-Go Luciferase Assay System kit following the manufacturer's instructions. The luminescence values (RLU/sec) caused by the reaction between luciferase and the substrate were quantified with a luminometer and normalized by the cell number (absorbance at 630 nm), and the activity of the promoter was determined, which was standardized with regard to the negative control values.
(§1) Each experiment was carried out three times in 3 independent experiments.

[2] = tested on: HEKa primary keratinocytes; experiment: Host cell reactivation (HCR) assay, activation of DNA repair in primary keratinocytes; format: cell-based, human; details: 24 hours, basal = 100
Experimental: The host cell reactivation (HCR) assay was used in HEKa primary keratinocytes to evaluate the capacity of the peptides of the invention to repair the damage to the DNA in a biologically functional way. 40,000 cells per well were seeded and they were co-transfected with a control plasmid which constitutively expresses the Firefly luciferase gene (pGL3), previously damaged by UVC, and with an undamaged plasmid which constitutively expresses the Renilla luciferase gene (vector pRluc-N1(h)).
Subsequently the cells were incubated with the compounds of the invention at 0.025 mg/mL and 0.5 mg/mL in EpiLife medium for 24 hours, after which the luminescence due to the activity of the Firefly and Renilla luciferases was measured using the Dual-Go Luciferase Assay System kit following the manufacturer's instructions. The carrier in which the compounds of the invention (EpiLife medium) were dissolved was used as a negative control. The activation percentage of the DNA repair for each sample was calculated standardizing the luminescence values of the Firefly luciferase with regard to the Renilla luciferase, subsequently standardizing with regard to the values of the negative control.
as §1

Row | Substance | Stimulation Average (%) of the activation of the FOXO response factors [1] | Activation Average (%) of DNA repair, HCR assay ([2]; 0.025 mg/mL) | Activation Average (%) of DNA repair, HCR assay ([2]; 0.5 mg/mL)
1 | Ac-L-Tyr-L-Asn-L-Lys-Gly-L-Gln-L-Val-NH2 (Ac-YNKGQV-NH2) [Ac-SEQ ID NO: 1-NH2] | 143% | 150% | 290%
2 | Ac-L-Tyr-L-Asn-L-Lys-L-Leu-L-Gln-L-Val-NH2 (Ac-YNKLQV-NH2) [Ac-SEQ ID NO: 21-NH2] | 157% | 231% | 357%
3 | Ac-L-Tyr-L-Asn-L-Lys-L-Lys-L-Gln-L-Val-NH2 (Ac-YNKKQV-NH2) [Ac-SEQ ID NO: 8-NH2] | 106% |  | 
4 | Ac-L-Tyr-L-Asn-L-Pro-L-His-L-Gln-L-Val-NH2 (Ac-YNPHQV-NH2) [Ac-SEQ ID NO: 18-NH2] | 148% |  | 
5 | Ac-L-Tyr-L-Glu-L-Ser-Gly-L-Gln-L-Val-NH2 (Ac-YESGQV-NH2) [Ac-SEQ ID NO: 16-NH2] | 119% |  | 
6 | Ac-L-Tyr-L-Glu-L-Ser-L-His-L-Gln-L-Val-NH2 (Ac-YESHQV-NH2) [Ac-SEQ ID NO: 19-NH2] | 145% | 191% | 304%
7 | Ac-L-Tyr-L-Glu-L-Ser-L-Lys-L-Gln-L-Val-NH2 (Ac-YESKQV-NH2) [Ac-SEQ ID NO: 24-NH2] | 133% | 295% | 271%
8 | Ac-L-Tyr-L-His-L-Lys-L-Leu-L-Gln-L-Val-NH2 (Ac-YHKLQV-NH2) [Ac-SEQ ID NO: 25-NH2] | 168% |  | 
9 | Ac-L-Tyr-L-Tyr-L-Lys-L-Leu-L-Gln-L-Val-NH2 (Ac-YYKLQV-NH2) [Ac-SEQ ID NO: 23-NH2] | 174% |  | 
10 | Ac-L-Tyr-L-Tyr-L-Ser-L-His-L-Gln-L-Val-NH2 (Ac-YYSHQV-NH2) [Ac-SEQ ID NO: 20-NH2] | 157% |  | 

Further lines, with some results ahead:

Row | Stimulation Average (%) of the activation of the FOXO response factors [1] | Substance | Activation Average (%) of DNA repair, HCR assay ([2]; 0.025 mg/mL) | Activation Average (%) of DNA repair, HCR assay ([2]; 0.5 mg/mL)
11 | 129% | Ac-L-Tyr-L-Asn-L-Ser-L-His-L-Gln-L-Val-NH2 (Ac-YNSHQV-NH2) [Ac-SEQ ID NO: 41-NH2] |  | 
12 | 128% | Ac-L-Tyr-L-Asn-L-Ser-L-Lys-L-Gln-L-Val-NH2 (Ac-YNSKQV-NH2) [Ac-SEQ ID NO: 27-NH2] |  | 
13 | 131% | Ac-L-Tyr-L-Glu-L-Pro-L-His-L-Gln-L-Val-NH2 (Ac-YEPHQV-NH2) [Ac-SEQ ID NO: 40-NH2] |  | 
14 | 125% | Ac-L-Tyr-L-His-L-Pro-L-His-L-Gln-L-Val-NH2 (Ac-YHPHQV-NH2) [Ac-SEQ ID NO: 28-NH2] |  | 
15 | 138% | Ac-L-Tyr-L-His-L-Ser-L-His-L-Gln-L-Val-NH2 (Ac-YHSHQV-NH2) [Ac-SEQ ID NO: 30-NH2] |  | 
16 | 124% | Ac-L-Tyr-L-His-L-Ser-L-Lys-L-Gln-L-Val-NH2 (Ac-YHSKQV-NH2) [Ac-SEQ ID NO: 26-NH2] |  | 
17 | 120% | Ac-L-Tyr-L-Tyr-L-Pro-L-His-L-Gln-L-Val-NH2 (Ac-YYPHQV-NH2) [Ac-SEQ ID NO: 29-NH2] |  | 
18 | 133% | Ac-L-Tyr-L-Tyr-L-Pro-L-Lys-L-Gln-L-Val-NH2 (Ac-YYPKQV-NH2) [Ac-SEQ ID NO: 42-NH2] |  | 
